According to the supplement of paper PMC10307832:

How the values were obtained:
Assay in all cases: relative viability (nuclei count vs DMSO), 5 days (fraction); higher = more cells survive
Linifanib = compound: Cc1ccc(F)c(NC(=O)Nc2ccc(-c3cccc4[nH]nc(N)c34)cc2)c1 [Linifanib]
Outline: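 Lung cancer cell lines in 1536-well plates were kept overnight at 37 °C, then pinned with five library-drug doses (not always all listed) spaced by √10 on vehicle-anchored plates. After 5 days without medium change, cells were fixed, permeabilised and Hoechst-stained in one step, imaged at 4×, and nuclei were counted with MetaXpress. Viability is treated-well nuclei divided by vehicle-well nuclei, taken as the median over plates. Plates passed only with control CV below 25% and at least one doubling.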

Linifanib + Phenformin = compound: Cc1ccc(F)c(NC(=O)Nc2ccc(-c3cccc4[nH]nc(N)c34)cc2)c1 [Linifanib] + N=C(N)NC(=N)NCCc1ccccc1 [Phenformin] (partner 250 µM)
Outline: (§1)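 Relative viability equals treated-well nuclei counts divided by vehicle-well nuclei counts. Counts came from 4× images of lung cancer cell lines grown in 1536-well plates for 5 days after pin-tool dosing on the day after seeding. Dosing used one drug alone or a fixed anchor-drug dose plus five library-drug doses (not always all listed) in √10 steps, and values are medians of duplicate plates.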

Linifanib + AZD7762 = compound: Cc1ccc(F)c(NC(=O)Nc2ccc(-c3cccc4[nH]nc(N)c34)cc2)c1 [Linifanib] + NC(=O)Nc1cc(-c2cccc(F)c2)sc1C(=O)N[C@H]1CCCNC1 [AZD7762] (partner 0.2 µM)
Outline: as §1

Linifanib + Vorinostat = compound: Cc1ccc(F)c(NC(=O)Nc2ccc(-c3cccc4[nH]nc(N)c34)cc2)c1 [Linifanib] + O=C(CCCCCCC(=O)Nc1ccccc1)NO [Vorinostat] (partner 1 µM)
Outline: as §1

Linifanib + Linsitinib = compound: Cc1ccc(F)c(NC(=O)Nc2ccc(-c3cccc4[nH]nc(N)c34)cc2)c1 [Linifanib] + C[C@]1(O)C[C@@H](c2nc(-c3ccc4ccc(-c5ccccc5)nc4c3)c3c(N)nccn32)C1 [Linsitinib] (partner 1 µM)
Outline: as §1

Linifanib + Olaparib = compound: Cc1ccc(F)c(NC(=O)Nc2ccc(-c3cccc4[nH]nc(N)c34)cc2)c1 [Linifanib] + O=C(c1cc(Cc2n[nH]c(=O)c3ccccc23)ccc1F)N1CCN(C(=O)C2CC2)CC1 [Olaparib] (partner 8 µM)
Outline: as §1

Cell Line	relative viability (Linifanib; 0.03162 µM)	relative viability (Linifanib; 0.1 µM)	relative viability (Linifanib; 0.3162 µM)	relative viability (Linifanib + Phenformin; first compound 0.03162 µM)	relative viability (Linifanib + Phenformin; first compound 0.1 µM)	relative viability (Linifanib + Phenformin; first compound 0.3162 µM)	relative viability (Linifanib + AZD7762; first compound 0.03162 µM)	relative viability (Linifanib + AZD7762; first compound 0.1 µM)	relative viability (Linifanib + AZD7762; first compound 0.3162 µM)	relative viability (Linifanib + Vorinostat; first compound 0.03162 µM)	relative viability (Linifanib + Vorinostat; first compound 0.1 µM)	relative viability (Linifanib + Vorinostat; first compound 0.3162 µM)	relative viability (Linifanib + Linsitinib; first compound 0.03162 µM)	relative viability (Linifanib + Linsitinib; first compound 0.1 µM)	relative viability (Linifanib + Linsitinib; first compound 0.3162 µM)	relative viability (Linifanib + Olaparib; first compound 0.03162 µM)	relative viability (Linifanib + Olaparib; first compound 0.1 µM)	relative viability (Linifanib + Olaparib; first compound 0.3162 µM)
EPLC-272H	0.883	1.23	0.884	0.298	0.318	0.325	0.226	0.448	0.205	0.522	0.467	0.513	1.04	1.2	1.15	0.728	1.05	0.722
NCI-H1975	0.987	1.03	0.938	0.418	0.433	0.406	0.688	0.706	0.618	0.649	0.735	0.697	0.898	0.98	1.02	0.797	0.881	0.796
NCI-H358	0.896	1.16	0.924	0.375	0.385	0.322	0.667	0.495	0.574	0.72	0.723	0.803	0.691	0.738	0.693	0.521	0.771	0.55
HARA	0.926	1.04	0.907	0.446	0.539	0.476	0.402	0.445	0.387	0.598	0.479	0.579	0.991	0.931	0.939	0.855	0.837	0.745
HOP-62	1.06	1.03	0.974	0.736	0.689	0.653	0.569	0.586	0.4	0.803	0.643	0.604	1.08	0.896	0.876	0.546	0.243	0.534
PC-3 [JPC-3]	1.06	1.03	0.939	0.491	0.474	0.442	0.796	0.856	0.776	0.671	0.747	0.775	0.971	0.903	1	1.09	1.14	1.13
NCI-H460	0.984	1.03	0.92	0.546	0.542	0.489	0.614	0.555	0.562	0.713	0.877	0.596	0.714	1.05	0.773	0.539	0.464	0.471
NCI-H23	0.98	1.06	0.811	0.773	0.838	0.749	0.259	0.287	0.31	0.771	0.688	0.566	0.536	0.798	0.475	0.358	0.347	0.186
201T	1	0.992	0.982	0.503	0.473	0.422	0.603	0.606	0.654	1.01	0.981	1.02	1.01	1.02	1.05	0.839	0.825	0.842
RERF-LC-KJ	1.04	0.989	0.96	0.404	0.479	0.439	1.03	1.01	0.938	0.737	0.804	0.727	0.888	0.907	0.827	0.875	1.08	0.892
NCI-H1666	0.986	1.03	0.939	0.577	0.559	0.548	0.941	0.854	0.833	0.996	1.01	0.97	0.66	0.869	0.803	0.809	0.716	0.766
ABC-1	1.03	0.842	0.672	0.271	0.234	0.24	0.869		0.767	1.19	1.31	0.906	0.825	1.03	0.788	0.765	0.725	0.681
EKVX	0.982	1.01	0.91	0.241	0.25	0.194	0.78	0.873	0.808	0.731	0.774	0.75	1.11	1.03	0.868	0.953	0.868	0.914
BEN	0.888	1.16	0.915	0.252	0.245	0.243	0.693	0.78	0.764	0.622	0.558	0.667	0.842	0.896	0.83	1.11	0.942	0.985
NCI-H322M	1	0.939	0.956	0.756	0.819	0.737	0.594	0.581	0.552	0.848	0.914	0.876	1	0.865	0.838	0.832	0.809	0.796
HCC-366	1.06	1.05	0.949	0.575	0.62	0.635	0.181	0.243	0.221	0.371	0.378	0.359	0.676	0.735	0.5	0.337	0.458	0.323
A-427	1.05	1.07	0.989	0.346	0.428	0.294	0.735	0.823	0.779	0.884	0.86	0.918	1.1	1.11	1.08	0.722	0.766	0.732
NCI-H838	0.96	1.06	0.936	0.79	0.642	0.542	0.907	0.952	0.953	0.724	0.711	0.686	0.973	1.14	0.901	0.753	0.783	0.71
NCI-H1355	1.03	1.07	0.99	0.449	0.496	0.425	0.648	0.765	0.792	0.647	0.68	0.682	0.843	0.876	0.852	0.768	0.832	0.726
NCI-H2126	1.02	1.01	0.972	0.557	0.535	0.542	1.02	1.06	0.983	0.797	0.859	0.873	0.696	0.731	0.753	0.986	0.912	0.9
HCC-827	1	1.06	1.02	0.432	0.453	0.382	0.204	0.231	0.275	0.792	0.814	0.802	0.992	0.999	0.996	0.651	0.711	0.654
NCI-H1755	1.03	1.06	0.987	0.666	0.621	0.571	0.457	0.505	0.495	0.761	0.765	0.892	0.953	1.01	0.999	0.875	0.903	0.835
HCC-15	1.08	1.05	0.939	0.501	0.567	0.479	0.922	1.18	1.12	0.796	0.838	0.792	0.881	0.89	0.817	0.827	0.772	0.706
NCI-H2405	1.08	1.04	0.966	0.396	0.4	0.382	0.71	0.777	0.803	0.988	1.05	0.951	0.886	0.98	0.852	0.94	0.835	0.828
HCC-78	0.99	1.17	0.885	0.675	0.761	0.686	0.629	0.595	0.599	0.419	0.427	0.455	0.528	0.526	0.497	0.946	0.77	0.943
NCI-H441	1.1	1.27	0.974	0.854	0.93	0.899	1.03	1.23	0.958	0.626	0.81	0.658	0.528	0.731	0.547	0.673	0.5	0.433
LCLC-97TM1	1.15	1.02	0.919	0.423	0.437	0.341	0.262	0.229	0.29	0.739	0.807	0.603	0.17	0.214	0.171	0.453	0.402	0.502
LCLC-103H	1.02	1.03	0.981	0.329	0.338	0.329	0.892	0.721	0.792	0.848	0.764	0.734	1.13	1.07	0.978	0.752	0.78	0.732
NCI-H1944	0.931	1.08	0.963	0.212	0.205	0.2	0.43	0.65	0.479	0.73	0.599	0.657	1.09	1.17	1.14	0.42	0.434	0.367
